The target in this assay is IDH1 R132H (Homo sapiens (Human), UniProt O75874, R132H). In words: Assays for IDH1 R132H Inhibitors (NADPH/aKG, resazurin detection). The assay is classed as biochemical. The conditions noted are these: IDH1 R132H enzyme. A digest of the protocol: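 Mutant enzyme in 150 mM NaCl, 10 mM MgCl2, 20 mM Tris pH 7.5, 0.03% BSA; compound in DMSO added to substrate mix of 8 uM NADPH and 2 mM aKG. Reaction ran 50 min at room temperature, then resazurin detection mix (30 μM) added for 5 min at room temperature.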
(Resazurin is reduced to fluorescent resorufin, in cell work by metabolically active cells.)

Setting [1] is: Table 2, read-out: IDHR132H Activity.

Where two headings read alike, the source gives them in different places.

Chain of IDH1 R132H (O75874 whole entry R132H): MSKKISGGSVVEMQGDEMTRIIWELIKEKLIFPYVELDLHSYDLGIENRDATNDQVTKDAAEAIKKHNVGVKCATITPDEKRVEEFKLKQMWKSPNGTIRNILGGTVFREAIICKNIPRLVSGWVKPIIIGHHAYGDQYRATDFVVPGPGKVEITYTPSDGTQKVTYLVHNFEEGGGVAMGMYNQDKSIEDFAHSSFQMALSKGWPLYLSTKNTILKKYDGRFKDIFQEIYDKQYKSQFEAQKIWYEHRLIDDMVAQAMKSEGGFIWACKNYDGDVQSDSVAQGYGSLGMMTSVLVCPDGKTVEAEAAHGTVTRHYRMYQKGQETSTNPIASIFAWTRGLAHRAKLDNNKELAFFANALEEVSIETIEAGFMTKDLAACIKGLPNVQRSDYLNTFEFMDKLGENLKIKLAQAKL

Regarding `COC(=O)N1CCN(c2nc(C3CC3)c3c(c2C#N)CC(C)(C)OC3)C[C@H]1C(C)C` [Compound 346, (R)-methyl 4-(5-cyano-8-cyclopropyl-3,3-dimethyl-3,4-dihydro-1H-pyrano[3,4-c]pyridin-6-yl)-2-isopropylpiperazine-1-carboxylate], the IC50 under setting [1] is less than 500 nM.
As to `C[C@@H]1CN(c2nc(C3CCCCC3)c3c(c2C#N)CCOC3)CCN1C(=O)c1cccs1` [Compound 241, (R)-8-cyclohexyl-6-(3-methyl-4-(thiophene-2-carbonyl)piperazin-1-yl)-3,4-dihydro-1H-pyrano[3,4-c]pyridine-5-carbonitrile], under setting [1], the IC50 is 1000 to 10000 nM.
On to `Cc1ccc(S(=O)(=O)N2CCN(c3nc(C4CC4)c4c(c3C#N)CC(C)(C)OC4)C[C@H]2C(C)C)cc1` [Compound 302, (R)-8-cyclopropyl-6-(3-isopropyl-4-tosylpiperazin-1-yl)-3,3-dimethyl-3,4-dihydro-1H-pyrano[3,4-c]pyridine-5-carbonitrile], for which the IC50 under setting [1] is 1000 to 10000 nM.
On to `CC1(C)Cc2c(C#N)c(N3CCN(C(=O)CC4COC4)[C@H](C4CC4)C3)nc(C3CC3)c2CO1` [Compound 466, (R)-8-cyclopropyl-6-(3-cyclopropyl-4-(2-(oxetan-3-yl)acetyl)piperazin-1-yl)-3,3-dimethyl-3,4-dihydro-1H-pyrano[3,4-c]pyridine-5-carbonitrile], for which, where the note is “Table 3, read-out: R132H IC50”, the IC50 lay within 500 to 1000 nM.
Turning to `CC[C@@H]1CN(c2nc(C3CC3)c3c(c2C#N)CC(C)(C)OC3)CCN1C(=O)Cc1cccc(OC)c1` [Compound 296], the IC50 under setting [1] lay within 500 to 1000 nM.
`COCCC(=O)N1CCN(c2nc(C3CC3)c3c(c2C#N)CCN(C(=O)CCO)C3)C[C@H]1C1CC1` [Compound 501, (R)-1-cyclopropyl-3-(3-cyclopropyl-4-(3-methoxypropanoyl)piperazin-1-yl)-′7-(3-hydroxypropanoyl)-5,6,7,8-tetrahydro-2,7-naphthyridine-4-carbonitrile]: the IC50 (Table 3, read-out: R132H IC50) is 500 to 1000 nM.
Turning to `C[C@@H]1CN(c2nc(C3CCCC3)c3c(c2C#N)CCOC3)C[C@H](C)N1C(=O)c1ccco1` [Compound 126, 8-cyclopentyl-6-((3S,5R)-4-(furan-2-carbonyl)-3,5-dimethylpiperazin-1-yl)-3,4-dihydro-1H-pyrano[3,4-c]pyridine-5-carbonitrile], the IC50 under setting [1] is 1000 to 10000 nM.
In the case of `COC(=O)C1CN(c2nc(C3CC3)c3c(c2C#N)CC(C)(C)OC3)CCN1C(=O)c1ccoc1` (stereo not drawn) [Compound 387], the IC50 under setting [1] fell in the range of 500 to 1000 nM.
For the compound `CCOC(=O)C1CN(c2nc(C3CC3)c3c(c2C#N)CC(C)(C)OC3)CCN1C(=O)c1ccoc1` (stereo not drawn) [Compound 259, ethyl 4-(5-cyano-8-cyclopropyl-3,3-dimethyl-3,4-dihydro-1H-pyrano[3,4-c]pyridin-6-yl)-1-(furan-3-carbonyl)piperazine-2-carboxylate], the IC50 under setting [1] was 1000 to 10000 nM.
On the same count and under the same terms, then `CC[C@@H]1CN(c2nc(C3CC3)c3c(c2C#N)CC(C)(C)OC3)CCN1C(=O)c1ccoc1C` [Compound 237, (R)-8-cyclopropyl-6-(3-ethyl-4-(2-methylfuran-3-carbonyl)piperazin-1-yl)-3,3-dimethyl-3,4-dihydro-1H-pyrano[3,4-c]pyridine-5-carbonitrile], with less than 500 nM; and `Cc1cncc(C(=O)N2CCN(c3nc(C4CC4)c4c(c3C#N)CC(C)(C)OC4)C[C@H]2C(C)C)c1` [Compound 245, (R)-8-cyclopropyl-6-(3-isopropyl-4-(5-methylnicotinoyl)piperazin-1-yl)-3,3-dimethyl-3,4-dihydro-1H-pyrano[3,4-c]pyridine-5-carbonitrile], with 1000 to 10000 nM.
As to `CC1CCN(c2nc(C3CC3)c3c(c2C#N)CC(C)(C)OC3)CCN1C(=O)C1CC1` (stereo not drawn) [Compound 475, 6-(4-(cyclopropanecarbonyl)-5-methyl-1,4-diazepan-1-yl)-8-cyclopropyl-3,3-dimethyl-3,4-dihydro-1H-pyrano[3,4-c]pyridine-5-carbonitrile], the IC50 (Table 3, read-out: R132H IC50) was 500 to 1000 nM.
Turning to `N#Cc1c(N2CCN(C(=O)c3ccco3)CC2)nc(C2CCCC2)c2c1CCOC2` [Compound 124, 8-cyclopentyl-6-(4-(furan-2-carbonyl)piperazin-1-yl)-3,4-dihydro-1H-pyrano[3,4-c]pyridine-5-carbonitrile], the IC50 under setting [1] fell in the range of 1000 to 10000 nM.
In the case of `C[C@@H]1CN(c2nc(C3CCCCC3)c3c(c2C#N)CCOC3)CCN1C(=O)c1cnn2cccnc12` [Compound 261, (R)-8-cyclohexyl-6-(3-methyl-4-(pyrazolo[1,5-a]pyrimidine-3-carbonyl)piperazin-1-yl)-3,4-dihydro-1H-pyrano[3,4-c]pyridine-5-carbonitrile], the IC50 under setting [1] lay within 1000 to 10000 nM.
On the same count and under the same terms, then `CC(C)c1nc(N2CCN(C(=O)c3ccco3)[C@H](C(C)C)C2)c(C#N)c2c1COC(C)(C)C2` [Compound 171, (R)-6-(4-(furan-2-carbonyl)-3-isopropylpiperazin-1-yl)-8-isopropyl-3,3-dimethyl-3,4-dihydro-1H-pyrano[3,4-c]pyridine-5-carbonitrile], with less than 500 nM; and `C[C@@H]1CN(c2nc(C3CC3)c3c(c2C#N)CC(C)(C)OC3)[C@@H](C)CN1C(=O)Cc1cccs1` [Compound 309], with 1000 to 10000 nM.
Same read-out and setting: the figure for `CC(C)c1nc(N2CCN(C(=O)c3ccoc3)C(C)C2)c(C#N)c2c1COC(C)(C)C2` (stereo not drawn) [Compound 138, 6-(4-(furan-3-carbonyl)-3-methylpiperazin-1-yl)-8-isopropyl-3,3-dimethyl-3,4-dihydro-1H-pyrano[3,4-c]pyridine-5-carbonitrile] is 1000 to 10000 nM.
As to `CC(=O)N1CCc2c(C#N)c(N3CCN(C(=O)C4CC4)[C@H](C4CC4)C3)nc(C3CC3)c2C1` [Compound 480, (R)-7-acetyl-3-(4-(cyclopropanecarbonyl)-3-cyclopropylpiperazin-1-yl)-1-cyclopropyl-5,6,7,8-tetrahydro-2,7-naphthyridine-4-carbonitrile], the IC50 (Table 3, read-out: R132H IC50) was 500 to 1000 nM.
On to `CC1(C)Cc2c(C#N)c(N3CCN(C(=O)c4ccoc4)C(C)(C)C3)nc(C3CC3)c2CO1` [Compound 318, 8-cyclopropyl-6-(4-(furan-3-carbonyl)-3,3-dimethylpiperazin-1-yl)-3,3-dimethyl-3,4-dihydro-1H-pyrano[3,4-c]pyridine-5-carbonitrile], for which the IC50 under setting [1] was 1000 to 10000 nM.
For the compound `CC(=O)N1CCN(c2nc(C3CCCCC3)c3c(c2C#N)CCOC3)C[C@H]1C` [Compound 362, (R)-6-(4-acetyl-3-methylpiperazin-1-yl)-8-cyclohexyl-3,4-dihydro-1H-pyrano[3,4-c]pyridine-5-carbonitrile], the IC50 under setting [1] lay within 1000 to 10000 nM.
Still for that read-out and setting: the figure for `CC(C)c1nc(N2CCN(C(=O)c3ccsc3)[C@H](C)C2)c(C#N)c2c1COC(C)(C)C2` [Compound 251, (R)-8-isopropyl-3,3-dimethyl-6-(3-methyl-4-(thiophene-3-carbonyl)piperazin-1-yl)-3,4-dihydro-1H-pyrano[3,4-c]pyridine-5-carbonitrile] is 1000 to 10000 nM; for `Cc1nc2ccccn2c1C(=O)N1CCN(c2nc(C3CCCCC3)c3c(c2C#N)CCOC3)C[C@H]1C` [Compound 190, (R)-8-cyclohexyl-6-(3-methyl-4-(2-methylimidazo[1,2-a]pyridine-3-carbonyl)piperazin-1-yl)-3,4-dihydro-1H-pyrano[3,4-c]pyridine-5-carbonitrile] it is 1000 to 10000 nM.
Same read-out and setting: then `CC(C)c1nc(N2CC(C)N(C(=O)NC3CCCCC3)C(C)C2)c(C#N)c2c1COCC2` (stereo not drawn) [Compound 108, 4-(5-cyano-8-isopropyl-3,4-dihydro-1H-pyrano[3,4-c]pyridin-6-yl)-N-cyclohexyl-2,6-dimethylpiperazine-1-carboxamide], with 1000 to 10000 nM; and `CC(C)COC(=O)N1CCN(c2nc(C3CC3)c3c(c2C#N)CC(C)(C)OC3)C[C@H]1C(C)C` [Compound 339, (R)-isobutyl 4-(5-cyano-8-cyclopropyl-3,3-dimethyl-3,4-dihydro-1H-pyrano[3,4-c]pyridin-6-yl)-2-isopropyl-piperazine-1-carboxylate], with 1000 to 10000 nM; and `CNC(=O)N1CCN(c2nc(C3CCCCC3)c3c(c2C#N)CCOC3)C[C@H]1C` [Compound 357, (R)-4-(5-cyano-8-cyclohexyl-3,4-dihydro-1H-pyrano[3,4-c]pyridin-6-yl)-N,2-dimethylpiperazine-1-carboxamide], with 1000 to 10000 nM.
Same read-out and setting: then `CCc1nc(N2CCN(C(=O)c3ccoc3)[C@H](C(C)C)C2)c(C#N)c2c1COC(C)(C)C2` [Compound 414, (R)-8-ethyl-6-(4-(furan-3-carbonyl)-3-isopropylpiperazin-1-yl)-3,3-dimethyl-3,4-dihydro-1H-pyrano[3,4-c]pyridine-5-carbonitrile], with 1000 to 10000 nM.
Regarding `CCOCCC(=O)N1CCN(c2nc(C3CC3)c3c(c2C#N)CC(C)(C)OC3)C[C@H]1C(C)C` [Compound 459, (R)-8-cyclopropyl-6-(4-(3-ethoxypropanoyl)-3-isopropylpiperazin-1-yl)-3,3-dimethyl-3,4-dihydro-1H-pyrano[3,4-c]pyridine-5-carbonitrile], the IC50 (Table 3, read-out: R132H IC50) was less than 500 nM.
Take `CSCCC(=O)N1CCN(c2nc(C(C)C)c3c(c2C#N)CC(C)(C)OC3)C[C@H]1C` [Compound 267, (R)-8-isopropyl-3,3-dimethyl-6-(3-methyl-4-(3-(methylthio)propanoyl)piperazin-1-yl)-3,4-dihydro-1H-pyrano[3,4-c]pyridine-5-carbonitrile]: under setting [1], the IC50 was in the range of 500 to 1000 nM.
With `CC1CN(c2nc(C3CCCCC3)c3c(c2C#N)CCOC3)CCN1C(=O)c1ccc2[nH]ccc2c1` (stereo not drawn) [Compound 134, 6-(4-(1H-indole-5-carbonyl)-3-methylpiperazin-1-yl)-8-cyclohexyl-3,4-dihydro-1H-pyrano[3,4-c]pyridine-5-carbonitrile], the IC50 under setting [1] lay in the range of 1000 to 10000 nM.
Turning to `CCOC(=O)[C@@H]1CN(c2nc(C(C)C)c3c(c2C#N)CC(C)(C)OC3)CCN1C(=O)c1ccoc1` [Compound 411], the IC50 under setting [1] is 500 to 1000 nM.

These data come from patent US9662327B2 (AGIOS PHARMACEUTICALS, INC, priority 2011, dated 2017).
